{
  "source": "patent EP4813993A1",
  "about": "“COMPOUND, PREPARATION METHOD THEREFOR, AND USE THEREOF” (Sichuan Kelun Pharmaceutical Research Institute Co., Ltd., priority 2023, dated 2025)",
  "key": {"[1]": {"tested_on": "formalin pain model", "experiment": "Rat formalin pain model", "type": "in vivo, SD rats", "settings": "for Number of pain responses 0 min / Number of pain responses 10 min / Number of pain responses 15 min / Number of pain responses 30 min / Number of pain responses 40 min / Number of pain responses 50 min / Number of pain responses 60 min: SD rats, Mean + SD, n = 10", "protocol": "Experimental Example 10: Pharmacodynamic effect study of compounds in rat formalin pain model\nExperimental animals: SD rats, male, 180-200 g.\nCompound preparation: 5% (final preparation volume) of DMSO was added to dissolve the test compound, and then 10% (final preparation volume) of Cremophor EL and 85% Saline were sequentially added; an appropriate amount of Etoricoxib was weighed, 5% (final preparation volume) of DMSO was added to dissolve the test compound, and then 5% (final preparation volume) of HS-15 and 90% Saline were sequentially added; the tramadol injection was diluted with normal saline to the desired concentration.\nEach group consisted of 10 animals, and 50 µL of a 5% formalin solution was injected using a microsyringe into the right plantar region.\n(§1) 2. Administration and test\nBased on different pharmacokinetic properties of the drugs, the administration was performed at 0 min, 60 min, and 120 min before modeling. After injection of the formalin, the number of pain responses in the rats was observed. […] Spontaneous pain responses were observed once every 5 min, and the number of pain responses in the rats within 1 min was counted, with a total observation duration of 60 min. Inhibition rate = (number of pain responses in control group - number of pain responses in administration group)/number of pain responses in control group × 100%.\nTable 12. Administration information of compounds of the present disclosure in rat formalin model"}, "[2]": {"tested_on": "acetic acid writhing model", "experiment": "Mouse acetic acid writhing model", "type": "in vivo, ICR mice", "settings": "for Number of writhing responses / Inhibition rate (%): ICR mice; for Number of writhing responses: 60 min before 0.8% acetic acid i.p., 30 min observation, Mean + SD, n = 10; for Inhibition rate (%): inhibition of writhing responses vs control group", "protocol": "Experimental Example 11: Pharmacodynamic effect study of compounds in mouse acetic acid writhing model\nExperimental animals: ICR mice, male, 20-24 g.\nCompound preparation: 5% (final preparation volume) of DMSO was added to dissolve the test compound, and then 10% (final preparation volume) of Cremophor EL and 85% Saline were sequentially added; an appropriate amount of Etoricoxib was weighed, 5% (final preparation volume) of DMSO was added to dissolve the test compound, and then 5% (final preparation volume) of HS-15 and 90% Saline were sequentially added.\n• 1. The mice were randomly grouped based on the body weight for model establishment, with 10 animals per group. A 0.8% (v/v) acetic acid solution was intraperitoneally injected at an injection volume of 10 mL/kg. • 2. Administration and test\nAdministration was performed 60 min before modeling. After the acetic acid solution was injected, the number of writhing responses in mice was observed. […] The number of writhing responses was observed and recorded during two intervals: 0-15 min and 15-30 min, with a total observation duration of 30 min. Inhibition rate = (number of writhing responses in control group - number of writhing responses in administration group)/number of writhing responses in control group × 100%. The model control group was given normal saline, the positive control group 1 was given etoricoxib at 20 mg/kg, the positive control group 2 was given VX-548 at 50 mg/kg, and the remaining groups were given the compounds of the present disclosure according to the administration doses in the table below."}, "[3]": {"tested_on": "CFA-induced rat inflammatory pain model", "experiment": "CFA-induced rat inflammatory pain model, Von Frey test", "type": "in vivo, SD rats", "protocol": "Experimental Example 9: Pharmacodynamic effect study of compounds in CFA-induced rat inflammatory pain model Experimental animals: SD rats, male, 180-220 g.\nCompound preparation: 5% (final preparation volume) of DMSO was added to dissolve the test compound, and then 10% (final preparation volume) of Cremophor EL and 85% Saline were sequentially added; an appropriate amount of Celecoxib was weighed, 5% (final preparation volume) of DMSO was added to dissolve the test compound, and then 5% (final preparation volume) of HS-15 and 90% Saline were sequentially added.\nSD rats were anesthetized with isoflurane. The right hind paw was disinfected, a needle was inserted subcutaneously at the posterior plantar aspect, and 50 µL of complete Freund's adjuvant (CFA, 1 mg/mL) was administered via subcutaneous injection at the midplantar region, with the needle withdrawn slowly while rotating to prevent leakage. After modeling, local redness and swelling of the soles of the feet, difficulty in walking, and lifting of the affected feet were observed.\nas §1\nThe Von Frey test was performed once before the surgery. On the second day after animal modeling, animals meeting the baseline requirements were selected for enrollment. The animals were randomly divided into 6 groups based on the 50% PWT values, with 10 animals per group. Administration was performed under a double-blind test protocol. The 50% PWT of the animals was measured separately before administration (baseline) and at 0.5 h, 2 h, and 8 h after administration. The model control group was given normal saline, while the compound groups were given the compounds according to the administration doses in the table below."}, "[4]": {"experiment": "Tissue distribution study (dorsal root ganglia) in SD rats", "type": "in vivo", "settings": "male, rat, oral administration 10 mg/kg", "protocol": "Experimental Example 5: Tissue distribution study of compounds in SD rats\nExperimental animals: SD rats, male, 6-8 weeks old.\nCompound preparation: 5% (final preparation volume) of DMSO was added to dissolve the test compound, and then 10% (final preparation volume) of Cremophor EL and 85% Saline were sequentially added.\nExperimental design: The test compounds were administered to SD rats as a single dose via oral administration (10 mg/kg; n = 3, 3 time points). Blood samples were collected at 0.5 h, 2 h, and 6 h after oral administration, followed by sacrifice of the animals. Dorsal root ganglia were collected, rinsed with ice-cold normal saline to remove residual blood, blotted dry with absorbent paper, and stored at -70 °C for analysis.\nSample test: The concentrations of the designated compound drugs in plasma and tissues were determined by the LC-MS/MS method."}, "[5]": {"settings": "50 mg/kg p.o. 120 min before 5% formalin"}, "[6]": {"settings": "125 mg/kg p.o. 120 min before 5% formalin"}, "[7]": {"settings": "mouse acetic acid writhing model"}},
  "data": [
    {"compound": "COc1c(C2CC(C)(C(F)(F)F)SC2C(=O)Nc2ccnc(C(N)=O)c2)ccc(F)c1F", "note": "(single isomer, unassigned) [Compound 139-A, 4-(3-(3,4-difluoro-2-methoxyphenyl)-5-methyl-5-(trifluoromethyl)tetrahydrothiophene-2-carboxamido)picolinamide]", "values": [
      {"measurement": "Number of pain responses 0 min", "setting": "[1]; [5]", "value": "35.6±6.7"},
      {"measurement": "Number of pain responses 10 min", "setting": "[1]; [5]", "value": "1.7±2.5"},
      {"measurement": "Number of pain responses 15 min", "setting": "[1]; [5]", "value": "6.8±3.9"},
      {"measurement": "Number of pain responses 30 min", "setting": "[1]; [5]", "value": "15.1±4.4"},
      {"measurement": "Number of pain responses 40 min", "setting": "[1]; [5]", "value": "12.7±5.9"},
      {"measurement": "Number of pain responses 50 min", "setting": "[1]; [5]", "value": "6.1±5.2"},
      {"measurement": "Number of pain responses 60 min", "setting": "[1]; [5]", "value": "2.7±2.6"},
      {"measurement": "Number of pain responses 0 min", "setting": "[1]; [6]", "value": "25.5±13.6"},
      {"measurement": "Number of pain responses 10 min", "setting": "[1]; [6]", "value": "1.1±1.1"},
      {"measurement": "Number of pain responses 15 min", "setting": "[1]; [6]", "value": "4.3±2.7"},
      {"measurement": "Number of pain responses 30 min", "setting": "[1]; [6]", "value": "11.7±6.3"},
      {"measurement": "Number of pain responses 40 min", "setting": "[1]; [6]", "value": "4.8±3.9"},
      {"measurement": "Number of pain responses 50 min", "setting": "[1]; [6]", "value": "1.8±1.8"},
      {"measurement": "Number of pain responses 60 min", "setting": "[1]; [6]", "value": "1.8±1.2"},
      {"measurement": "dose-effect relationship", "setting": "[1]; rat formalin pain model", "value": "relatively good dose-effect relationship"},
      {"measurement": "analgesic activity in the first and second phases", "setting": "[1]; rat formalin pain model, first phase immediately after injection, second phase about 15-20 min after", "value": "significant analgesic activity in both the first and second phases"},
      {"measurement": "Number of writhing responses", "setting": "[2]; Dose 50 mg/kg", "value": "27±18"},
      {"measurement": "Inhibition rate (%)", "setting": "[2]; Dose 50 mg/kg", "value": 45.36, "unit": "%"},
      {"measurement": "Number of writhing responses", "setting": "[2]; Dose 125 mg/kg", "value": "18±12"},
      {"measurement": "Inhibition rate (%)", "setting": "[2]; Dose 125 mg/kg", "value": 62.89, "unit": "%"},
      {"measurement": "effect of inhibiting the number of writhing responses", "setting": "[2]; dose of 125 mg/kg", "value": "very significant effect"},
      {"measurement": "dose-effect relationship", "setting": "[2]; [7]", "value": "relatively good dose-effect relationship"},
      {"measurement": "inhibition of the writhing effect compared with VX-548", "setting": "[2]; [7]", "value": "better than VX-548"},
      {"measurement": "analgesic activity compared with the positive control Celecoxib", "setting": "[3]; CFA-induced rat inflammatory pain model", "value": "superior to the positive control Celecoxib"},
      {"measurement": "PWT 50% value (g) Post-surgery, Preadministration", "setting": "[3]; SD rats CFA, 125 mg/kg group, baseline before administration, Mean + SEM, n = 10", "value": "3.1 ± 1.12", "unit": "g"},
      {"measurement": "PWT 50% value (g) Pre-surgery", "setting": "[3]; SD rats CFA, 125 mg/kg group, baseline before modeling, Mean + SEM, n = 10", "value": "12.61 ± 3.5", "unit": "g"},
      {"measurement": "PWT 50% value (g) Time 0.5 h", "setting": "[3]; SD rats CFA, 125 mg/kg, 0.5 h after administration, Mean + SEM, n = 10", "value": "6.78 ± 5.47", "unit": "g"},
      {"measurement": "PWT 50% value (g) Time 2 h", "setting": "[3]; SD rats CFA, 125 mg/kg, 2 h after administration, Mean + SEM, n = 10", "value": "6.54 ± 3.06", "unit": "g"},
      {"measurement": "PWT 50% value (g) Time 8 h", "setting": "[3]; SD rats CFA, 125 mg/kg, 8 h after administration, Mean + SEM, n = 10", "value": "3.6 ± 1.5", "unit": "g"},
      {"measurement": "PWT 50% value (g) AUC0-8h", "setting": "[3]; SD rats CFA, 125 mg/kg, Mean + SEM, n = 10", "value": "40.83 ± 12.03", "unit": "g"},
      {"measurement": "concentration at 0.5 h", "setting": "[4]; Time 0.5 h", "value": 1070, "unit": "ng/g"},
      {"measurement": "concentration at 2 h", "setting": "[4]; Time 2 h", "value": 973, "unit": "ng/g"},
      {"measurement": "concentration at 6 h", "setting": "[4]; Time 6 h", "value": 549, "unit": "ng/g"}
    ]}
  ]
}
